Data: patent publication US20100261700A1, “BETA-LACTAMASE INHIBITORS” (priority 2009, published 2010)

Columns and labels:
[1] = molecular target: T1, beta-lactamase from Enterobacter cloacae (Enterobacter cloacae, UniProt P05364); test: Time dependent inhibition of beta-lactamase, with dialysis to test for return of activity; format: biochemical; details: 10 mL 0.1 units/mL beta-lactamase with 500 microM inhibitor, dialysed against 1 L 0.1 M sodium phosphate buffer (pH 7.0), one exchange
T1 construct: purchased Sigma-Aldrich
T1 sequence (P05364 21-381): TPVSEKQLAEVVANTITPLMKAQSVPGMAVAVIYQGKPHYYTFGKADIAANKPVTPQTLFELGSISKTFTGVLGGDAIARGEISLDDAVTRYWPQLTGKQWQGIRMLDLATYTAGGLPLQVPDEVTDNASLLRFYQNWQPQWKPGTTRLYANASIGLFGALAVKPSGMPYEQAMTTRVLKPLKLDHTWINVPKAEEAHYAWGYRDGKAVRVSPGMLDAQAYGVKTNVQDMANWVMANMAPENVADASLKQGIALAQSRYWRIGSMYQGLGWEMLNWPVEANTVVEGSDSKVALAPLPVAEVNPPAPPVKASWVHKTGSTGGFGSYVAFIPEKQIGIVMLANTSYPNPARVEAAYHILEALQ

[2] = molecular target: T1, beta-lactamase from Enterobacter cloacae; test: Assay (I) for beta-lactamase activity, Cefesone hydrolysis (product inhibition); format: biochemical; details: reaction continued for two hours; theoretical maximal absorbance approximately 1.6; said to be consistent with product inhibition
Method: A chromogenic cephalosporin, Cefesone, is synthesized and isolated, for example, as described by Sutton et al. International Application WO 2009/049086 and used to monitor p-lactamase activity. A typical assay monitors the hydrolysis of Cefesone via the formation of a species which absorbs at 486 nm (molar absorptivity constant 16,000). Absorption is monitored as a function of time in 0.1 M, pH 7.0 sodium phosphate, 0.2 mM Cefesone and 4 volume percent DMSO cosolvent at 30° C. using a Beckman DU-40 spectrophotometer having a circulating water bath attached to the cuvette holder. The assay is initiated by addition and mixing of an appropriate amount of beta-lactamase.
The beta-lactamase assay using enzyme fro Enterobacter cloacae (Sigma-Aldrich, St. Louis, Mo.) was carried out as in Example 2 (assay I) above with compound 2. After the initial rate was determined the reaction was allowed to continue for two hours. Theoretical maximal absorbance at 486 nm is approximately 1.6 while the observed final absorbance was consistently 0.26.

| Compound | return of beta-lactamase activity after dialysis [1] | observed final absorbance at 486 nm [2] |
| --- | --- | --- |
| O=C(Cc1ccccc1)NC1C(=O)N2C(C(=O)O)=C(/C=C/C3CC3)CSC12 (stereo not drawn) [compound 2, 3-vinylcyclopropane-7-(2-phenylacetamido)-3-Cephem-4-carboxylic acid] | no return of activity | 0.26 |
| O=C(Cc1ccccc1)NC1C(=O)N2C(C(=O)O)=C(/C=C/c3ccc(CBr)cc3)CSC12 (stereo not drawn) [compound 4, 3-(1-bromomethyl-4-vinylbenzene)-7-(2-phenylacetamido)-3-Cephem-4-carboxylic acid] | no return of activity |  |
